Experimental data published in patent US12383598B2, “Method for treating gingivitis and gingival atrophy and repairing oral mucosa” (ADVANCED HEALTHTECH BIOPEPTIDE LABORATORIES CO., LTD, priority 2021, dated 2025).
Ends that are not written are not given here. Peptide text beside a SMILES is read from it.

Key:
Format in all cases: cell-based
[1] = system: human HGF; experiment: Synthesis of extracellular matrix (ECM) from human HGF; settings: 50 μM KTTKS or GEKG; TGF-β1 0, 0.5 and 5 ng/ml; FIG. 10
Protocol: It is determined whether or not there exists synergism between GEKG or KTTKS and TGF-β1 in the synthesis of ECM when human HGF was treated with TGF-β1 (0.5 or 5 ng/ml) alone or in combination with KTTKS or GEKG (50 µM).
Human HGF were pre-cultured in the Dulbecco's Modified Eagle Medium (DMEM) containing 0.2% bovine serum for 24 hours, and then treated with 3 different concentrations (0, 0.5 and 5 ng/ml) of TGF-β1 for 24 hours, followed by further culturing for 24 hours in the absence of KTTKS and GEKG (solid line) or in the presence of 50 μM KTTKS or GEKG (dotted line).

[2] = system: TGF-β1; experiment: Gene expression of TGF-β1 in human gingival fibroblasts (RT-PCR); settings: human HGF, FIG. 9A, 9B
[3] = biological target: TNFα (Homo sapiens, UniProt P01375); experiment: TNFα inhibition in L929 cells; settings: for O.D. (TNFα inhibition): O.D. at 490/630 nm
Chain of TNFα (P01375 77-233 limits assumed, species assumed): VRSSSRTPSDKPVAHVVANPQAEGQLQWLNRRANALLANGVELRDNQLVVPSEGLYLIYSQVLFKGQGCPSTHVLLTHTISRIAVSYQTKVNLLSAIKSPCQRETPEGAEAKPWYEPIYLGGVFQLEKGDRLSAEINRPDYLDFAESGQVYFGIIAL
Protocol: (§1) In vitro L929 cell proliferation/cytotoxicity assay was measured in a microtiter plate. L929 cells were cultured in the Eagle's minimum essential medium (EMEM) containing 10% bovine serum, 1% P/S and 1% non-essential amino acids. Converged L929 cells were washed by 2 ml of a phosphate buffer solution (PBS) and then treated with trypsin, followed by resuspension in the EMEM. 200 μl of the cell suspension were taken by suction for cell density counting, and the remaining cell suspension were centrifuged at 1500 rpm for 5 minutes. The supernatant was removed, and the EMEM was added for diluting the cells to form a final concentration of 1.5×10^5 cells/ml. 100 μl of the resultant cell suspension were added to each well of a 96-well flat-bottom microtiter plate, and then incubated at 37° C. and 5% CO2 for 24 hours.
GEKG and KTTKS were re-solved with 1× PBS to form solutions having a concentration equivalent to 1 mg GEKG/ml and 1 mg KTTKS/ml, respectively, followed by further dilution with 1× PBS to form solutions having a concentration of 500, 125, 31.25 […], respectively, and the resultant diluted solutions were mixed with a TNFα solution with an equal volume, and incubated for 1 hour. 50 μl of each of the 4 mixtures were added to the above 96-well flat-bottom microtiter plate containing L929 cells incubated for 24 hours, and actinomycin D (ActD) with a final concentration of 2 μg/ml and TNFα with a final concentration of 0.1 ng/ml were added to each well. Test wells containing 2 μg/ml ActD only and 0.1 ng/ml TNFα only were used as positive controls and blank controls, respectively. The resultant 96-well flat-bottom microtiter plate was further incubated at 37° C. and 5% CO2 for 24 hours. O.D. values at 490/630 nm were measured by a microplate reader. TNFα inhibition was calculated by the following formula: […]

[4] = system: primary oral epithelial cells; experiment: Death of primary oral epithelial cells induced by free radical H2O2; settings: different concentrations, in vitro; FIG. 7
[5] = system: primary oral epithelial cells; experiment: Proliferation of primary oral epithelial cells; settings: different concentrations, in vitro; FIG. 6
[6] = Cytotoxicity to L929 cells (XTT); settings: mouse, L929 cells
Protocol: as §1
(§2) GEKG and KTTKS were re-solved with 1× PBS to form solutions having a concentration equivalent to 1 mg GEKG/ml and 1 mg KTTKS/ml, respectively, followed by further […], respectively. 50 μl of each of the 4 diluted solutions were added to the above 96-well flat-bottom microtiter plate containing L929 cells incubated for 24 hours, and ActD with a final concentration of 2 μg/ml was added to each well. The resultant 96-well flat-bottom microtiter plate was further incubated at 37° C. and 5% CO2 for 24 hours, followed by addition of 50 μl of 2,3-bis(2-methoxy-4-nitro-5-sulfophenyl)-5-[(phenylamino)carbonyl]-2H-tetrazolium hydroxide (XTT) to each well and further incubation for 1 hour. O.D. values at 490/630 nm were measured by a microplate reader. Cytotoxicity was calculated by the following formula: […]

[7] = system: L929 cells; experiment: Cytotoxicity to L929 cells (XTT); settings: for O.D. (cytotoxicity): O.D. at 490/630 nm; for Cytotoxicity to L929 cells (in words): series of dilutions
Protocol: as §1, §2

[8] = system: macrophages; experiment: NO production from macrophages induced by LPS; settings: in vitro; FIGS. 3 and 4
Protocol: In vitro anti-inflammation of GEKG and KTTKS was evaluated by using the well-known inflammation model of NO production from macrophages induced by lipopolysaccharide (LPS).

[9] = system: Type I collagen; experiment: Gene expression of Type I collagen in human gingival fibroblasts (RT-PCR); settings: concentration of 0 to 40 μl, FIG. 8B
Protocol: Production of Type I collagen in human gingival fibroblasts was observed. There is a dose-dependent relationship between expression of Type I collagen and GEKG and KTTKS in a concentration of 0 to 40 μl.

[10] = system: macrophages; experiment: H2O2 production from macrophages induced by LPS; settings: in vitro; FIG. 5
Protocol: An ability of GEKG and KTTKS against inflammatory oxidation pressure in vitro was evaluated by using the well-known inflammation model of H2O2 production from macrophages induced by lipopolysaccharide (LPS).

[11] = system: human gingival fibroblasts (HGF); experiment: Proliferation of human gingival fibroblasts (HGF); settings: different concentrations, in vitro; FIG. 8A

## NCCCC[C@H](NC(=O)[C@H](CCC(=O)O)NC(=O)CN)C(=O)NCC(=O)O [GEKG] (H-GEKG-OH)
[1]
  Synthesis of ECM (collagen and fibrin) from human HGF: exhibit a more significant ability in inducing human HGF for synthesizing ECM than TGF-β1
[2]
  Gene expression of TGF-β1: stimulate gene expression of TGF-β1 in transcription
[3]; GEKG dilution 1/16
  O.D. (TNFα inhibition): 1.60
[3]; GEKG dilution 1/64
  O.D. (TNFα inhibition): 0.80
[3]; GEKG dilution 1/256
  O.D. (TNFα inhibition): 0.61
[3]; GEKG dilution 1/512
  O.D. (TNFα inhibition): 0.56
[3]; GEKG dilution 1/1024
  O.D. (TNFα inhibition): 0.51
[3]; GEKG dilution 1/2048
  O.D. (TNFα inhibition): 0.48
[3]; GEKG dilution 1/4096
  O.D. (TNFα inhibition): 0.51
[3]; GEKG dilution ¼
  O.D. (TNFα inhibition): 2.87
[4]
  Reduction of death of primary oral epithelial cells induced by free radical H2O2: reduce death of primary oral epithelial cells induced by free radical H2O2 in vitro in a dose-dependent manner
[5]
  Promotion of proliferation of primary oral epithelial cells: promote proliferation of primary oral epithelial cells in vitro in a dose-dependent manner
[6]; GEKG dilution 1/16
  cytotoxicity at 24 h: -12.3%
[6]; GEKG dilution 1/64
  cytotoxicity at 24 h: -2.32%
[6]; GEKG dilution 1/256
  cytotoxicity at 24 h: -4.61%
[6]; GEKG dilution 1/512
  cytotoxicity at 24 h: -1.71%
[6]; GEKG dilution 1/1024
  cytotoxicity at 24 h: 0.11%
[6]; GEKG dilution 1/2048
  cytotoxicity at 24 h: 1.9%
[6]; GEKG dilution 1/4096
  cytotoxicity at 24 h: -4.72%
[6]; GEKG dilution ¼
  cytotoxicity at 24 h: -58.7%
[7]; GEKG dilution 1/16
  O.D. (cytotoxicity): 2.01
[7]; GEKG dilution 1/64
  O.D. (cytotoxicity): 1.83
[7]; GEKG dilution 1/256
  O.D. (cytotoxicity): 1.87
[7]; GEKG dilution 1/512
  O.D. (cytotoxicity): 1.82
[7]; GEKG dilution 1/1024
  O.D. (cytotoxicity): 1.79
[7]; GEKG dilution 1/2048
  O.D. (cytotoxicity): 1.75
[7]; GEKG dilution 1/4096
  O.D. (cytotoxicity): 1.87
[7]; GEKG dilution ¼
  O.D. (cytotoxicity): 2.84
[7]
  Cytotoxicity to L929 cells (in words): does not induce cytotoxicity
[8]
  Inhibition of NO production from macrophages induced by LPS: inhibit NO production from macrophages induced by LPS in a dose-dependent manner
[9]
  Gene expression of Type I collagen: stimulate gene expression of Type I collagen in transcription
[10]
  Inhibition of H2O2 production from macrophages induced by LPS: inhibit H2O2 production from macrophages induced by LPS in a dose-dependent manner
[11]
  Effect on proliferation of HGF: neither GEKG nor KTTKS in different concentrations exhibits a significant effect in promoting proliferation of HGF

## KTTKS [KTTKS]
[1]
  Synthesis of ECM (collagen and fibrin) from human HGF: exhibit a more significant ability in inducing human HGF for synthesizing ECM than TGF-β1
[2]
  Gene expression of TGF-β1: stimulate gene expression of TGF-β1 in transcription
[3]; KTTKS 4.156 μg/ml
  O.D. (TNFα inhibition): 0.479
[3]; KTTKS 16.625 μg/ml
  O.D. (TNFα inhibition): 0.597
[3]; KTTKS 66.5 μg/ml
  O.D. (TNFα inhibition): 1.042
[3]; KTTKS 266 μg/ml
  O.D. (TNFα inhibition): 2.363
[3]; L929, KTTKS 4.156 μg/ml
  inhibition at 4.156 µg/mL: 10.5%
[3]; L929, KTTKS 16.625 μg/ml
  inhibition at 16.625 µg/mL: 21.1%
[3]; L929, KTTKS 66.5 μg/ml
  inhibition at 66.5 µg/mL: 60.9%
[3]; L929, KTTKS 266 μg/ml
  inhibition at 266 µg/mL: 179%
[4]
  Reduction of death of primary oral epithelial cells induced by free radical H2O2: reduce death of primary oral epithelial cells induced by free radical H2O2 in vitro in a dose-dependent manner
[5]
  Promotion of proliferation of primary oral epithelial cells: promote proliferation of primary oral epithelial cells in vitro in a dose-dependent manner
[6]; KTTKS 4.156 μg/ml
  cytotoxicity at 24 h, 4.156 μg/ml: -8.3%
[6]; KTTKS 16.625 μg/ml
  cytotoxicity at 24 h, 16.625 μg/ml: -3.9%
[6]; KTTKS 66.5 μg/ml
  cytotoxicity at 24 h, 66.5 μg/ml: -20.8%
[6]; KTTKS 266 μg/ml
  cytotoxicity at 24 h, 266 μg/ml: -77.1%
[7]; KTTKS 4.156 μg/ml
  O.D. (cytotoxicity): 1.600
[7]; KTTKS 16.625 μg/ml
  O.D. (cytotoxicity): 1.535
[7]; KTTKS 66.5 μg/ml
  O.D. (cytotoxicity): 1.784
[7]; KTTKS 266 μg/ml
  O.D. (cytotoxicity): 2.616
[7]
  Cytotoxicity to L929 cells (in words): does not induce cytotoxicity
[8]
  Inhibition of NO production from macrophages induced by LPS: inhibit NO production from macrophages induced by LPS in a dose-dependent manner
[9]
  Gene expression of Type I collagen: stimulate gene expression of Type I collagen in transcription
[10]
  Inhibition of H2O2 production from macrophages induced by LPS: inhibit H2O2 production from macrophages induced by LPS in a dose-dependent manner
[11]
  Effect on proliferation of HGF: neither GEKG nor KTTKS in different concentrations exhibits a significant effect in promoting proliferation of HGF

## TGF-β1: tumor growth factor-β1 used at 0.5 or 5 ng/ml to treat human HGF [reference compound]
[1]
  Synthesis of ECM (collagen and fibrin) from human HGF: up-regulate biosynthesis of ECM
